Data taken from patent US12391646B2, “Using adiponectin receptor agonists to treat inflammation and bone diseases in diabetes” (Trustees of Tufts College, priority 2020, dated 2025).

Tests used:
[1] = cited from earlier work
AdipoRs = conditions: cited from earlier work
[2] = system: LPS-stimulated bone marrow-derived macrophages (BMMs); test: qRT-PCR of IL-6 and IL-1β mRNA in LPS-stimulated BMMs; type: cell-based, C57BL/6J mice; conditions: AdipoAI 5 μM compared with compound 5 (5 μM) and APR (20 μM)
[3] = system: LPS-stimulated Raw264.7 cells; test: mRNA microarray analysis of LPS-stimulated Raw264.7 cells; type: cell-based
Protocol: FIG. 2 AdipoAI suppresses LPS-stimulated inflammatory responses in macrophages. (a) Raw264.7 cells or (b) BMMs were pretreated with APR (20 μM) or AdipoAI (5 μM) for 24 h followed by incubation with LPS (100 ng/mL) for additional 6 h for the measurement of IL-6 and IL-1β in supernatants by ELISA. Data were expressed as the mean±SEM at five biological independent experiments. One-way ANOVA test for multiple-group comparisons, * vs. LPS group, *P<0.05, significant differences between each indicated group. (c) PEMs were isolated from C57BL/6J mice (n=5 mice/group) were injected i.p. with ImL 4% thioglycolate solution or AdipoAI (25 mg/kg) for the measurement of IL-6 and IL-1β. The amounts of IL-6 and IL-1β in supernatant were measured by ELISA. Data were expressed as the mean±SEM (n=5). Two-tailed Student's t-test for two groups, *P<0.05, significant differences between each indicated group. (d-f) Impact of AdipoAI on basal (d) and LPS-induced expression of an array of proinflammatory cytokines, chemokines, and receptors (e,f) in Raw264.7 cells (4 groups and 3 biological replicates/group). Data analyses were performed according to the manufacturer's instructions with their web-based software package (www.qiagen.com/us/shop/genes-and-pathways/data-analysis-center overview-page/). (g) Differentiated expressed genes annotated to a gene-ontology term and example genes by gene-ontology-enrichment analysis of each component. (brown: LPS vs control; black: AdipoAI+LPS vs LPS). (h) Differentially expressed M1 and M2 genes are shown according to the microarray databases. […]
FIG. 7 AdipoAI regulated methylation level of the c-Maf gene promoter to suppress c-Maf activation in LPS-induced macrophages. […] (b) mRNA levels of c-Maf were determined by qPCR in Raw264.7 cells, BMMs and PEMs treated with AdiopoAI or LPS. Data were expressed as the mean±SEM at five […] biological independent experiments. […] (c) c-Maf mRNA expression levels in lung, spleen, liver and WAT of LPS-induced endotoxemia mice were measured by qRT-PCR and normalized with GAPDH mRNA levels. Data are expressed as mean±SEM (n=6). […]

[4] = system: mice with LPS-induced endotoxemia; test: LPS-induced endotoxemia in WT mice; type: in vivo, C57BL/6 mice
Protocol: FIG. 4 AdipoAI protects against LPS-induced endotoxemia. Endotoxemia was induced in WT mice by intraperitoneal injection with LPS ([…]), and control littermates were administered with equivalent volumes of PBS. APR or AdipoAI were orally gavaged into mice for 24 hours before LPS challenge and control animals were administered with equivalent volumes of DMSO. (a) mRNA expression levels of pro-inflammatory cytokines in lung, spleen, liver and WAT were measured by qRT-PCR and normalized with GAPDH mRNA levels. Data are shown as mean±SEM (n=6). (b) Survival curve of mice with endotoxemia (n=12). (c) Serum levels of IL-6 and IL-1β were measured by ELISA. Data are expressed as mean±SEM (n=6). (d) Histopathology for lung, spleen, liver and WAT tissues isolated from APR- or AdipoAI-treated mice 24 h before LPS challenge (n=6). Upper panel: Hematoxylin and cosin staining; Lower panel: Immunohistochemical staining for macrophage marker F4/80. Red arrow indicates F4/80 positive cells. One-way ANOVA test for multiple-group comparisons, * vs. DMSO+PBS group, # vs. DMSO+LPS group. */#P<0.05, significant differences between each indicated group. ns, not significant.
The Ethics Committee on the Use and Care of Animals at Tufts University approved the study protocol (Boston, MA, USA). The animals received humane care according to the criteria outlined in the Guide for the Care and Use of Laboratory Animals prepared by the National Academy of Sciences and published by the National Institutes of Health. All experiments involving animals or animal tissue are reported in compliance with the guidelines of ARRIVE and BJP (Kilkenny et al., 2010; McGrath and Lilley, 2015). Experimental protocols and design adhere to BJP guidelines (Curtis et al., 2015). Wild-type (WT, C57BL/6J, Jax #000664), DIO (Jax #380050), and APN KO (Jax #008195) mice were purchased from the Jackson Laboratory. The DIO mice were fed with a high-fat diet (containing 60% kcal from fat; Jackson Laboratory) at 6 weeks of age and later. The WT mice were fed with ordinary diet as normal chow (NC)-fed mice, and APN KO mice were maintained and fed with an NC diet as previously described (Tu et al., 2011). For the LPS-induced endotoxemia model, male C57BL/6 mice aged 8 weeks received oral gavage with APR (50 mg/kg body weight) or AdipoAI (25 mg/kg body weight) for 24 h before by LPS (20 mg/kg body weight) treatment which was administered intraperitoneally whereas control animals were treated with equivalent volumes of normal PBS. Mouse survival in each group was monitored and recorded up to 84 h. All mice were killed at 1 h for detection of activation of inflammatory genes, at 6 h for determination of inflammatory factors in serum, and at 24 h for histological evaluation. Animal data were excluded from experiments based on pre-established criteria of visible abnormal tissue structure during sample harvest or other health issues, including fighting wounds.

Row | SMILES | solubility [1] | binding affinity for AdipoRs (AdipoRs) | inhibition of LPS-stimulated IL-6 and IL-1β expression in BMMs [2] | expression of M1 or M2 macrophage-related genes ([3]; LPS-induced Raw264.7 cells) | expression of proinflammatory cytokines, chemokines and receptors (microarray) ([3]; LPS-stimulated Raw264.7 cells) | c-Maf mRNA levels (microarray) ([3]; LPS-treated Raw264.7 cells) | serum levels of IL-6 and IL-1β ([4]; 6 h post-LPS administration) | lung histopathology ([4]; 24 h, LPS-challenged mice) | survival rate ([4]; 84 h post-LPS challenge, vehicle 12.5%) [%] | LPS-induced spleen, liver and WAT injury and inflammatory responses ([4]; LPS-challenged mice) | c-Maf mRNA and protein levels in lung, spleen, liver and WAT ([4]; LPS-challenged mice, qPCR and IHC) | expression of TNF-α in tissues ([4]; LPS-induced endotoxemia mice (sentence also covers DIO mice)) | mRNA levels of proinflammatory genes in lung, spleen, WAT, liver ([4]; oral gavage 24 h before LPS challenge)
1 | O=C(COc1ccc(C(=O)c2ccccc2)cc1)NC1CCN(Cc2ccccc2)CC1 [AdipoRon, reference compound] | relatively low solubility | low binding affinity for AdipoRs |  |  |  |  |  |  |  |  |  |  | 
2 | COc1ccc(CN2CCC(NC(=O)COc3ccc(C(=O)c4ccc(Cl)cc4)cc3)CC2)cc1 [Compound 3] |  |  | strongest inhibitory effects | did not alter the expression of M1 or M2 macrophage-related genes | decreased the expression of the same genes to near basal levels | inhibited | reduced serum levels of pro-inflammatory cytokines IL-6 and IL-1β | fewer lung lesions and decreased inflammatory cell infiltration | 40 | alleviated | decreased | did not inhibit the expression of TNF-α | decreased mRNA levels of proinflammatory genes
